Reference: ChEMBL document CHEMBL1126161, “3,4-Dihydroquinolin-2(1H)-ones as combined inhibitors of thromboxane A2 synthase and cAMP phosphodiesterase” (J Med Chem, 1992)
Several values for one entry are separate records, joined by “and”; a condition that tells them apart may be missing. Equal entries are not always repeated. One block for each compound: values may come before it.

Experiments:
Mus musculus [1] = test: Protection against mortality in pulmonary thromboembolism model in mice at 1 mg/kg; type: functional
Mus musculus [2] = test: Protection against mortality in pulmonary thromboembolism model in mice at 9 mg/kg; type: functional
Homo sapiens [3] = species on record: Homo sapiens; test: (§1) Ratio of IC50(PDE)/IC50(TXA2)
Thromboxane-A synthase = molecular target: T1, Thromboxane-A synthase (Homo sapiens, UniProt P24557); test: Compound was evaluated for the inhibition of human blood platelet, thromboxane A2 synthase
T1 sequence (P24557 whole entry): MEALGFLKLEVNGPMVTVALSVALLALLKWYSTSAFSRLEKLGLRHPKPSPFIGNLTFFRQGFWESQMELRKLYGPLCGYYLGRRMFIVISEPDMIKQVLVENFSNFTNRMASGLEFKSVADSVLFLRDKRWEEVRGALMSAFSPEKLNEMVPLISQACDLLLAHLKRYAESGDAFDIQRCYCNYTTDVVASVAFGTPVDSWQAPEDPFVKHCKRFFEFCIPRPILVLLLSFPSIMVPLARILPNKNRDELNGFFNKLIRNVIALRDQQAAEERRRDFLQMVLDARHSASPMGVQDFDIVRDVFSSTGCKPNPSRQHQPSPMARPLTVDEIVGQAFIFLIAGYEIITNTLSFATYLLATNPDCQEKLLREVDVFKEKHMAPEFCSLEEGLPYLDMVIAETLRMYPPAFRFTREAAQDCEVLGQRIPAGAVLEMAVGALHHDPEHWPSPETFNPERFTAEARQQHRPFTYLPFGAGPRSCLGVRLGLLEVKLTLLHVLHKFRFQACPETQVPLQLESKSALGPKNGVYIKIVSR

Mus musculus [4] = test: Protection against mortality in pulmonary thromboembolism model in mice at 3 mg/kg; type: functional
Homo sapiens [5] = species on record: Homo sapiens; test: Inhibition of ADP-induced aggregation of human PRP in the absence of pig aortal microsomes (PAM); type: functional
Homo sapiens [6] = species on record: Homo sapiens; test: In vitro inhibition of ADP-induced aggregation of human PRP in the presence of pig aortal microsomes (PAM).; type: functional
Phosphodiesterase 3 = Phosphodiesterase 3 (Homo sapiens, UniProt Q14432+Q13370); test: Inhibition of human blood platelet c-AMP phosphodiesterase
Rattus norvegicus [7] = test: Antihypertensive activity in conscious spontaneously hypertensive rat (SHR), percent change in Systolic blood pressure (SBP) after 2 hr; type: functional
Homo sapiens [8] = species on record: Homo sapiens; test: Inhibition of [14C]arachidonic acid induced 6-keto-PGF1-alpha formation at 10 uM (Control 6-keto-PGF1-alpha = 1.45+/-0.6)
Homo sapiens [9] = species on record: Homo sapiens; test: Inhibition of [14C]arachidonic acid conversion to 6-keto-PGF1-alpha in platelets at 1 uM (Control 6-keto-PGF1-alpha = 1.45+/-0.6)
Rattus norvegicus [10] = test: Ex vivo inhibition of blood platelet aggregation in rats at 50 mg/kg peroral dose after 8 hr; type: functional; conditions: route oral
Mus musculus [11] = test: Protection against mortality in pulmonary thromboembolism model in mice at 10 mg/kg; type: functional
Rattus norvegicus [12] = test: Antihypertensive activity in conscious spontaneously hypertensive rat (SHR), percent change in Systolic blood pressure (SBP) after 4 hr; type: functional
Rattus norvegicus [13] = test: Antihypertensive activity in conscious spontaneously hypertensive rat (SHR), percent change in heart rate (beats/min) after 1 hr; type: functional
Rattus norvegicus [14] = test: (§2) Antihypertensive activity in conscious spontaneously hypertensive rat (SHR), percent change in Systolic blood pressure (SBP) after 1 hr; type: functional
Rattus norvegicus [15] = test: Ex vivo inhibition of blood platelet aggregation in rats at 50 mg/kg peroral dose after 3 hr; type: functional; conditions: route oral
Rattus norvegicus [16] = test: Antihypertensive activity in conscious spontaneously hypertensive rat (SHR), percent change in heart rate (beats/min) after 2 hr; type: functional
Rattus norvegicus [17] = test: Effect of TXA2 synthase inhibitor (compound) on serum TXB2 level in rats at 50 mg/kg po, after 2 hr; type: functional
Homo sapiens [18] = species on record: Homo sapiens; test: as §1; type: functional
Homo sapiens [19] = species on record: Homo sapiens; test: Inhibition of [14C]arachidonic acid induced platelet aggregation at 1 uM (Control TXB2 = 14.9+/-2.5); type: functional
Homo sapiens [20] = species on record: Homo sapiens; test: Ratio of IC50(w/oPAM)/IC50(w/PAM); type: functional
Mus musculus [21] = test: Protection against mortality in pulmonary thromboembolism model in mice at 30 mg/kg; type: functional
Homo sapiens [22] = species on record: Homo sapiens; test: Inhibition of [14C]arachidonic acid induced platelet TXB2 formation at 0.1 uM (Control TXB2 = 14.9+/-2.5)
Rattus norvegicus [23] = test: Ex vivo inhibition of blood platelet aggregation in rats at 50 mg/kg peroral dose after 5 hr; type: functional; conditions: route oral
Rattus norvegicus [24] = test: Antihypertensive activity in conscious spontaneously hypertensive rat (SHR), percent change in heart rate (beats/min) after 4 hr; type: functional
Homo sapiens [25] = species on record: Homo sapiens; test: Inhibition of [14C]arachidonic acid induced platelet aggregation at 10 uM (Control TXB2 = 14.9+/-2.5); type: functional
Rattus norvegicus [26] = test: Antihypertensive activity in conscious spontaneously hypertensive rat (SHR), percent change in heart rate (beats/min) after 1 hr at 10 mg/kg peroral dose; type: functional; conditions: route oral
Rattus norvegicus [27] = test: Antihypertensive activity in conscious spontaneously hypertensive rat (SHR), percent change in heart rate (beats/min) after 2 hr at 10 mg/kg peroral dose; type: functional; conditions: route oral
Rattus norvegicus [28] = test: Antihypertensive activity in conscious spontaneously hypertensive rat (SHR), percent change in heart rate (beats/min) after 4 hr at 10 mg/kg peroral dose; type: functional; conditions: route oral
Rattus norvegicus [29] = test: Antihypertensive activity in conscious spontaneously hypertensive rat (SHR), percent change in Systolic blood pressure (SBP) after 4 hr at 10 mg/kg peroral dose; type: functional; conditions: route oral
Rattus norvegicus [30] = test: as §2; type: functional; parameters: concentration or dose not given beside the values
Rattus norvegicus [31] = test: Antihypertensive activity in conscious spontaneously hypertensive rat (SHR), percent change in Systolic blood pressure (SBP) after 2 hr at 10 mg/kg peroral dose; type: functional; conditions: route oral
Rattus norvegicus [32] = test: Antihypertensive activity in conscious spontaneously hypertensive rat (SHR), percent change in Systolic blood pressure (SBP) after 1 hr at 10 mg/kg peroral dose; type: functional; conditions: route oral

Compound: O=C1CCc2cc(C(c3ccccc3)n3ccnc3)ccc2N1 (stereo not given)
survival at 1 mg/kg (Mus musculus [1]): 20%
survival at 9 mg/kg (Mus musculus [2]): 40%
Ratio (Homo sapiens [3]): 114
IC50 (Thromboxane-A synthase): 0.35 µM
survival at 3 mg/kg (Mus musculus [4]): 20%
IC50 (Homo sapiens [5]): 44 µM
IC50 (Homo sapiens [6]): 0.35 µM
IC50 (Phosphodiesterase 3): 40 µM

Compound: O=C1CCc2cc(-c3cccnc3)ccc2N1
Change systolic BP (Rattus norvegicus [7]): -28%
6-keto-PGF1α level at 10 µM (Homo sapiens [8]): 31.9%
6-keto-PGF1α level at 1 µM (Homo sapiens [9]): 7.7%
survival at 1 mg/kg (Mus musculus [1]): 20%
inhibition in vivo at 50 mg/kg (Rattus norvegicus [10]): 4.7%
survival at 10 mg/kg (Mus musculus [11]): 40%
Change systolic BP (Rattus norvegicus [12]): -22%
Change in heart rate (Rattus norvegicus [13]): 13%
Change systolic BP (Rattus norvegicus [14]): -42%
IC50 (Thromboxane-A synthase): 0.54 µM
inhibition in vivo at 50 mg/kg (Rattus norvegicus [15]): 94.7%
Change in heart rate (Rattus norvegicus [16]): 18%
inhibition in vivo at 50 mg/kg (Rattus norvegicus [17]): 94%
Ratio (Homo sapiens [18]): 8.1
TXB2 level at 1 µM (Homo sapiens [19]): 14.8%
Ratio (Homo sapiens [20]): 50
survival at 30 mg/kg (Mus musculus [21]): 50%
survival at 3 mg/kg (Mus musculus [4]): 40%
TXB2 level at 0.1 µM (Homo sapiens [22]): 21.1%
inhibition in vivo at 50 mg/kg (Rattus norvegicus [23]): 53.2%
Change in heart rate (Rattus norvegicus [24]): 13%
IC50 (Homo sapiens [5]): 27 µM
IC50 (Homo sapiens [6]): 0.54 µM
TXB2 level at 10 µM (Homo sapiens [25]): 4.5%
IC50 (Phosphodiesterase 3): 4.4 µM

Compound: O=C1CCc2cc(C#CCn3ccnc3)ccc2N1
Change in heart rate (Rattus norvegicus [26]): 9%
Change in heart rate (Rattus norvegicus [27]): 11%
Change in heart rate (Rattus norvegicus [28]): 11%
Change systolic BP (Rattus norvegicus [29]): -15%
Change systolic BP (Rattus norvegicus [30]): -3%
Change systolic BP (Rattus norvegicus [31]): -5%

Compound: Cc1[nH]c(=O)c(C#N)cc1-c1ccncc1 [MILRINONE]
Change in heart rate (Rattus norvegicus [26]): 11%
Change in heart rate (Rattus norvegicus [27]): 36%
Change systolic BP (Rattus norvegicus [32]): -65%
Change in heart rate (Rattus norvegicus [28]): 45%
Change systolic BP (Rattus norvegicus [29]): -47%
Change systolic BP (Rattus norvegicus [31]): -54%

Compound: C/C(=C\c1cccnc1)c1ccc2c(c1)CCC(=O)N2
Change in heart rate (Rattus norvegicus [27]): 20%
Change in heart rate (Rattus norvegicus [28]; 10 mg/kg): 12% and 25%
Ratio (Homo sapiens [20]): 41
Change systolic BP (Rattus norvegicus [30]): -19% and -16%
Change systolic BP (Rattus norvegicus [31]): -15%
IC50 (Homo sapiens [5]): 90 µM
IC50 (Homo sapiens [6]): 2.2 µM

Compound: O=C1CCc2cc(C#Cc3cccnc3)ccc2N1
Change in heart rate (Rattus norvegicus [26]): 4%
Change in heart rate (Rattus norvegicus [27]): 15%
Change in heart rate (Rattus norvegicus [28]): 22%
Change systolic BP (Rattus norvegicus [29]): -5%
Ratio (Homo sapiens [20]): 22
Change systolic BP (Rattus norvegicus [30]): -13%
Change systolic BP (Rattus norvegicus [31]): -6%
IC50 (Homo sapiens [5]): 240 µM
IC50 (Homo sapiens [6]): 11 µM

Compound: Oc1ccc2cc(/C=C/n3ccnc3)ccc2n1
Ratio (Homo sapiens [18]): 10.5
Ratio (Homo sapiens [20]): 7.4
IC50 (Homo sapiens [5]): 2.8 µM
IC50 (Homo sapiens [6]): 0.38 µM
IC50 (Phosphodiesterase 3): 4 µM

Now from value to compound, other results behind:

IC50 (Homo sapiens [6]): 37 µM
Compound: CCCCCC(Cc1cccnc1)c1ccc2c(c1)CCC(=O)N2 (stereo not given)

IC50 (Homo sapiens [5]): 74 µM
IC50 (Homo sapiens [6]): 7.6 µM
Compound: C=C(Cn1ccnc1)c1ccc2c(c1)CCC(=O)N2
Ratio (Homo sapiens [20]): 9.7

IC50 (Thromboxane-A synthase): 2 µM
IC50 (Homo sapiens [5]): 80 µM
IC50 (Homo sapiens [6]): 2 µM
IC50 (Phosphodiesterase 3): 16 µM
Compound: O=C1CCc2cc(-n3ccnc3)ccc2N1
inhibition in vivo at 50 mg/kg (Rattus norvegicus [17]): 77%
Ratio (Homo sapiens [18]): 8
Ratio (Homo sapiens [20]): 40

IC50 (Homo sapiens [5]): 37 µM
IC50 (Homo sapiens [6]): 2.5 µM
Compound: CCCCCC(c1ccc2c(c1)CCC(=O)N2)n1ccnc1 (stereo not given)

IC50 (Homo sapiens [5]): 350 µM
IC50 (Homo sapiens [6]): 5.5 µM
Compound: CC(Cn1ccnc1)c1ccc2c(c1)CCC(=O)N2 (stereo not given)
Ratio (Homo sapiens [20]): 64

IC50 (Homo sapiens [5]): 270 µM
IC50 (Homo sapiens [6]): 28 µM
Compound: O=C1CCc2cc(/C(=C/n3ccnc3)c3ccccc3)ccc2N1
Ratio (Homo sapiens [20]): 9.6
